Key:
GIRK2 [1] = biological target: T1, GIRK2 (Mus musculus, UniProt P48542); test: fluorescence (ACMA) K+ flux assay, purified channel reconstituted in liposomes; type: biochemical
T1 construct: gene Kcnj6; amino acids 52-380
T1 sequence (P48542 52-380): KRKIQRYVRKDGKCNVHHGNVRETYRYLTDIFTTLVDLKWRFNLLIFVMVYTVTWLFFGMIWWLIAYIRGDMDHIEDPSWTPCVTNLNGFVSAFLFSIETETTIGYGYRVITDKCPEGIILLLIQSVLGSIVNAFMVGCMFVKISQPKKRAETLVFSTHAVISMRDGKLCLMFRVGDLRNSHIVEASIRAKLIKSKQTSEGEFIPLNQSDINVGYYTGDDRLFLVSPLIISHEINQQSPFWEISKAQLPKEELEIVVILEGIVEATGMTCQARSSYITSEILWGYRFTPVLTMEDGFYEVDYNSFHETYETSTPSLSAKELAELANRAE

GIRK2 [2] = biological target: T1, GIRK2; test: fluorescence (ACMA) K+ flux assay, purified channel reconstituted in liposomes with brain PIP2; type: biochemical

Compound	EC50 (GIRK2 [1]) [µM]	fluorescence (ACMA) K+ flux assay, purified channel reconstituted in liposomes w (GIRK2 [2]) [mM]
CCCCCCCC(=O)OC[C@H](COP(=O)(O)O[C@@H]1[C@H](O)[C@H](O)[C@@H](OP(=O)(O)O)[C@H](OP(=O)(O)O)[C@H]1O)OC(=O)CCCCCCC [diC8-PIP2]	25.1 ± 3.3	
CCO [ethanol]		> 20
